Test results published in paper PMC2949467 (Journal of inorganic biochemistry, 2010).

Tests used:
[1] = tested on: T. cruzi; details: cited from earlier work
[2] = tested on: T. cruzi epimastigotes (Tulahuen 2 strain); test: In vitro activity on T. cruzi epimastigotes; assay type: cell-based; details: Trypanosoma cruzi, 120 h, read-out: PGI25μM (%) (epimastigote): percentage of growth inhibition of T. cruzi epimastigote cells

For `O=P(O)(O)C(O)(Cc1cccnc1)P(=O)(O)O` [NaRis, (1-hydroxy-1-phosphono-2-pyridin-3-yl-ethyl)phosphonate], the “Parasitemia in infected mice” value [1] is listed as “significantly reduces the parasitemia”, the “Toxicity in infected mice” value [1] is listed as “no toxicity” and the Animal survival ([1]; infected mice) is listed as “increases the animal survival”. For the same compound, the inhibition at 25 µM [2] was 19%.
